In the supplement of paper PMC11061612:

Key:
Test in all cases: combination Emax (second highest fraction inhibited in the dose matrix, 72 h); higher = more inhibition; extreme values may be limits of the assay
[1] = tested on: SNU-61 (Colorectal Carcinoma)
Summary of the method: (§1)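 Cell lines in DMEM/F12 or RPMI with 10% FBS were plated in 1536-well plates, held 24 hours at 37°C, 5% CO2, then given two-drug dose matrices for 72 hours (DMSO typically 0.2%). Viability was read by CellTiter-Glo 2.0 luminescence and scaled as inhibition from 0 (vehicle wells) to 1 (blank wells). Combination Emax is the second-highest inhibition in the matrix; Bliss excess is observed combination effect minus expected EA + EB − EA·EB, EA and EB being single-agent effects.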

MCF7 (Breast Carcinoma) = tested on: MCF7 (Breast Carcinoma)
Summary of the method: as §1

[2] = tested on: YT (Other Blood Carcinomas)
Summary of the method: as §1

A172 (Glioblastoma) = tested on: A172 (Glioblastoma)
Summary of the method: as §1

Saos-2 (Osteosarcoma) = tested on: Saos-2 (Osteosarcoma)
Summary of the method: as §1

[3] = tested on: TYK-nu (Ovarian Carcinoma)
Summary of the method: as §1

CS1 (Chondrosarcoma) = tested on: CS1 (Chondrosarcoma)
Summary of the method: as §1

[4] = tested on: SW48 (Colorectal Carcinoma)
Summary of the method: as §1

[5] = tested on: EKVX (Non-Small Cell Lung Carcinoma)
Summary of the method: as §1

[6] = tested on: KG-1 (Acute Myeloid Leukemia)
Summary of the method: as §1

[7] = tested on: JHH-6 (Hepatocellular Carcinoma)
Summary of the method: as §1

[8] = tested on: SNG-M (Endometrial Carcinoma)
Summary of the method: as §1

[9] = tested on: MES-SA (Other Solid Carcinomas)
Summary of the method: as §1

[10] = tested on: MEG-01 (Chronic Myelogenous Leukemia)
Summary of the method: as §1

[11] = tested on: GDM-1 (Acute Myeloid Leukemia)
Summary of the method: as §1

[12] = tested on: HCC1143 (Breast Carcinoma)
Summary of the method: as §1

[13] = tested on: SK-LMS-1 (Other Solid Carcinomas)
Summary of the method: as §1

[14] = tested on: HCC-827 (Lung Adenocarcinoma)
Summary of the method: as §1

[15] = tested on: SKN-3 (Head and Neck Carcinoma)
Summary of the method: as §1

HuO9 (Osteosarcoma) = tested on: HuO9 (Osteosarcoma)
Summary of the method: as §1

| SMILES | combination Emax [1] | combination Emax (MCF7 (Breast Carcinoma)) | combination Emax [2] | combination Emax (A172 (Glioblastoma)) | combination Emax (Saos-2 (Osteosarcoma)) | combination Emax [3] | combination Emax (CS1 (Chondrosarcoma)) | combination Emax [4] | combination Emax [5] | combination Emax [6] | combination Emax [7] | combination Emax [8] | combination Emax [9] | combination Emax [10] | combination Emax [11] | combination Emax [12] | combination Emax [13] | combination Emax [14] | combination Emax [15] | combination Emax (HuO9 (Osteosarcoma)) |
| --- | --- | --- | --- | --- | --- | --- | --- | --- | --- | --- | --- | --- | --- | --- | --- | --- | --- | --- | --- | --- |
| CN(C)CCCOc1ccc(-c2ccc3ncc4c(c3c2)n(C2CCOCC2)c(=O)n4C)cn1 [AZD0156] + C=CCn1c(=O)c2cnc(Nc3ccc(N4CCN(C)CC4)cc3)nc2n1-c1cccc(C(C)(C)O)n1 [AZD1775] (first compound max 1 µM, partner max 1 µM) | 0.248 | 0.417 | 0.888 | 0.53 | 0.494 | 0.679 | 0.509 | 0.372 | 0.179 | 0.357 | 0.148 | 0.58 | 0.768 | 0.883 | 0.823 | 0.6 | 0.439 | 0.456 | 0.139 | 0.709 |
| CN(C)CCCOc1ccc(-c2ccc3ncc4c(c3c2)n(C2CCOCC2)c(=O)n4C)cn1 [AZD0156] + CCN(CCO)CCCOc1ccc2c(Nc3cc(CC(=O)Nc4cccc(F)c4)[nH]n3)ncnc2c1 [AZD2811] (first compound max 1 µM, 7x7, partner max 1 µM) | 0.0613 | 0.237 | 0.591 | 0.499 | 0.369 | 0.304 | 0.301 | 0.957 | 0.0666 | 0.328 | 0.241 | 0.0754 | 0.711 | 0.329 | 0.81 | 0.302 | 0.278 | 0.143 | 0.0518 | 0.224 |
| CN(C)CCCOc1ccc(-c2ccc3ncc4c(c3c2)n(C2CCOCC2)c(=O)n4C)cn1 [AZD0156] + C[C@@H]1COCCN1C2=NC(=NC(=C2)C3(CC3)[S@](=N)(=O)C)C4=C5C=CNC5=NC=C4 [AZD6738] (first compound max 1 µM, 7x7, partner max 10 µM) | 0.299 | 0.837 | 0.727 | 0.717 | 0.394 | 0.713 | 0.674 | 0.779 | 0.234 | 0.711 | 0.337 | 0.964 | 0.807 | 0.912 | 0.52 | 0.871 | 0.525 | 0.495 | 0.414 | 0.838 |
| C=CCn1c(=O)c2cnc(Nc3ccc(N4CCN(C)CC4)cc3)nc2n1-c1cccc(C(C)(C)O)n1 [AZD1775] + C[C@@H]1COCCN1C2=NC(=NC(=C2)C3(CC3)[S@](=N)(=O)C)C4=C5C=CNC5=NC=C4 [AZD6738] (first compound max 1 µM, partner max 10 µM) | 0.404 | 0.73 | 0.897 | 0.81 | 0.823 | 0.732 | 0.766 | 0.886 | 0.327 | 0.83 | 0.553 | 0.947 | 0.852 | 0.935 | 0.861 | 0.906 | 0.704 | 0.609 | 0.648 | 0.94 |
| C=CCn1c(=O)c2cnc(Nc3ccc(N4CCN(C)CC4)cc3)nc2n1-c1cccc(C(C)(C)O)n1 [AZD1775] + O=C(c1cc(Cc2n[nH]c(=O)c3ccccc23)ccc1F)N1CCN(C(=O)C2CC2)CC1 [Olaparib] (first compound max 1 µM, partner max 10 µM) | 0.302 | 0.332 | 0.902 | 0.434 | 0.613 | 0.698 | 0.564 | 0.409 | 0.256 | 0.412 | 0.223 | 0.668 | 0.696 | 0.845 | 0.827 | 0.593 | 0.563 | 0.368 | 0.171 | 0.792 |
| CCN(CCO)CCCOc1ccc2c(Nc3cc(CC(=O)Nc4cccc(F)c4)[nH]n3)ncnc2c1 [AZD2811] + C=CCn1c(=O)c2cnc(Nc3ccc(N4CCN(C)CC4)cc3)nc2n1-c1cccc(C(C)(C)O)n1 [AZD1775] (first compound max 1 µM, partner max 1 µM) | 0.212 | 0.303 | 0.888 | 0.603 | 0.704 | 0.708 | 0.45 | 0.964 | 0.17 | 0.436 | 0.223 | 0.482 | 0.767 | 0.863 | 0.857 | 0.623 | 0.436 | 0.392 | 0.148 | 0.686 |
